Source: US9775895B2, “HIV therapeutics and methods of making and using same” (priority 2012, dated 2017)
Non-standard residues stand in square brackets, D forms with d. Residues, ends and D or L forms follow the SMILES beside them. No end group written: not given here. sY = N[C@@H](Cc1ccc(OS(=O)(=O)O)cc1)C(=O)O

Columns and labels:
HIV-1 BaL = type: cell-based; details: acute infection, primary human CD4+ T cells; read-out: half maximal inhibitory concentration (IC50) for infection by HIV-1 BaL
From the text: (§1) FIGS. 3A-3H are a series of graphs illustrating that a tyrosine-sulfated peptide containing the V2 α-helix binds to gp120, competes with an anti-CCR5-binding site antibody for HIV-1 virion binding, and blocks HIV-1 entry, infection and fusion. (A) Effect of tyrosine-sulfated V2-loop (pV2α-Tys) and CCR5 N-terminus (pCCR5-Tys) mimetic peptides on HIV-1 virion capture by mAb 412d, a sulfated mAb directed to the CCR5-binding site at the base of V3. Unsulfated homologous peptides (pV2α and pCCR5) were tested in parallel as controls. Infectious viral stocks from HIV-1 BaL were pre-treated with the peptides (each at 50 μM) and then incubated with immunomagnetic beads armed with mAb 412d; beads armed with mAb 2G12 (directed to a glycan-dependent epitope on the gp120 outer domain) were used in parallel as a control. Asterisks denote significant differences with the untreated control (p<0.05 by unpaired Student's t test). (B) Dose-dependent effect of peptides pV2α and pV2α-Tys on cell-free infection by HIV-1 BaL in primary CD4^+ T cells. […] (F) Binding of gp120 to immobilized peptide pV2α as assessed by surface plasmon resonance analysis. […] (H) Comparison between the experimentally determined V3 interaction of the tyrosine sulfated CDRH3 region of mAb 412d and the modeled V3 interaction of a tyrosine sulfated peptide derived from the central region of V2. […]

primary CD4+ T cells = experiment: Cell viability of primary CD4+ T cells by timed flow cytometry counting; type: cell-based, human; details: activated primary CD4+ T cells cultured 7 days
Procedure: FIG. 9 is a graph illustrating the effect of V2-derived peptides pV2α and pV2α-Tys on viability of primary CD4^+ T cells. Purified human peripheral blood CD4^+ T cells previously activated in vitro with phytohemagglutinin and IL-2 were treated with each peptide at the indicated concentrations and cultured for 7 days. Cell viability was measured by quantitative counting using timed flow cytometry on a FACSCanto II.
HIV-1 isolates, infection, entry and cell viability assays. Details about the HIV-1 isolates used in the this study, the infection assay, the entry assay and the cell viability assay have been reported previously (Auerbach et al., Proc Natl Acad Sci USA 109, 9569-9574, 2012).

[1] = molecular target: T1, recombinant soluble gp120 (isolate YU2) (Human immunodeficiency virus type 1 group M subtype B, UniProt P35961); experiment: Surface plasmon resonance, gp120 binding to immobilized biotinylated peptide; set-up: species or system HIV-1
T1 construct: recombinant soluble gp120 (isolate YU2)
From the text: Binding of gp120 to immobilized peptide pV2α as assessed by surface plasmon resonance analysis (FIG. 3F). The biotinylated peptide was bound to a neutravidin-coated CM3 sensor chip and recombinant soluble gp120 (isolate YU2) was flown over the chip in the liquid phase. […] Residuals of the fit, which has an RMSD of 0.62 RU shown twice on different scales to facilitate their critical inspection (lower two graphs).

recombinant soluble CD4 = molecular target: T2, recombinant soluble CD4 (Homo sapiens, UniProt P01730); experiment: Surface plasmon resonance, soluble CD4 binding to immobilized biotinylated peptide; details: koff-KD distribution model
T2 construct: recombinant soluble CD4 was flown over the chip
Procedure: FIG. 12 is a graph illustrating binding of recombinant soluble CD4 to peptide pV2α. The biotinylated peptide was bound to a neutravidin-coated CM3 sensor chip and recombinant soluble CD4 was flown over the chip in the liquid phase. Experimental binding traces were recorded for sCD4 (at the concentration of […]) binding to 235 RU pV2α at a flow rate of […]; best fit traces (red lines) were derived from modeling with koff−KD distribution. (Lower graphs) Residuals of the fit, which has an rmsd of 0.47 RU shown twice on different scales to facilitate their critical inspection.
Binding of recombinant soluble CD4 to peptide pV2α was evaluated by surface plasmon resonance (FIG. 12). The biotinylated peptide was bound to a neutravidin-coated sensor chip and recombinant soluble CD4 was flown over the chip in the liquid phase. Experimental binding traces were recorded for sCD4 (at the concentration of […]) binding to 235 RU pV2α at a flow rate of […]; best fit traces (red lines) were derived from modeling with koff−KD distribution.

HeLa and HEK293 cells = experiment: Viability of cell lines by timed flow cytometry counting; type: cell-based; details: 30 mM, 72 hrs
Procedure: FIGS. 2L-2O illustrate the different efficiency of V2 tyrosine sulfation in recombinant gp120 produced in epithelial cell lines versus virion-associated gp120 produced by primary CD4^+ T cells. (L) Detection of sulfated tyrosines by Western blot in recombinant gp120 produced in CHO cells. (M) Lack of adverse effects of sodium chlorate treatment or TPST2 overexpression on the viability of HeLa and HEK293 cells. The cell lines were treated with 30 mM sodium chlorate (NaClO3) or transfected with a plasmid vector expressing TPST2 and cultured for 72 hrs. Cell viability was measured by quantitative counting using timed flow cytometry on a FACSCanto II and is expressed as percent viable cell recovery. (N) Side-by-side comparison of the extent of tyrosine sulfation detected by Western blot in a reference sulfated mAb (412d), in virion-associated gp120 produced by infected primary human CD4^+ T cells (V-gp120), and in recombinant gp120 produced in HEK293 cells (R-gp120). Identical amounts of mAb 412d and purified gp120 were loaded on the gels. For V-gp120, the protein was immunoprecipitated directly from the infectious viral stocks. The antibodies used for Western blots and the methods used for relative quantification were the same as in (L). […]

[2] = system: gp120 tyrosine sulfation (sulfotransferases); experiment: Western blot of tyrosine sulfation in recombinant gp120 produced in CHO cells; type: cell-based; details: 30 mM; recombinant gp120 BaL
HIV-1 BaL ΔV2 gp160 = experiment: Fusion neutralization of HIV-1 BaL ΔV2 with or without NaClO3 pre-treatment; type: cell-based; details: 30 mM, 72 hrs pre-treatment
[3] = system: CD4-activated gp120 (BaL) binding to mAb 412d; experiment: Surface plasmon resonance, peptide effect on gp120 binding to immobilized mAb 412d; set-up: species or system HIV-1; details: peptide at 166 μM; gp120 BaL 100 nM with sCD4
Procedure: (§2) The interaction of the tyrosine-sulfated V2 peptide with the 412d-binding site was further characterized by surface plasmon resonance (SPR).
(§3) Surface plasmon resonance. Recombinant gp120 from HIV-1 BaL (at 100 nM) obtained from the NIH AIDS Reagent Program was pre-incubated with or without a 2-fold molar excess of two-domain sCD4 (at 200 nM) and passed over a Biacore CM5 sensor surface in the presence or absence of the indicated peptides (at 166 μM) for 2 min at 25 μl/min in HBS supplemented with 3 mM EDTA and 0.005% Tween-20 followed by a 2 min dissociation phase using a Biacore 3000 biosensor (Biacore, Inc.). Surfaces were regenerated after each cycle by a brief injection of 4.5M MgCl2.

[4] = system: HIV-1 BaL virions captured by mAb 412d (CCR5-binding site at the base of V3); experiment: HIV-1 virion-capture assay with mAb 412d-armed immunomagnetic beads; details: peptides at 50 μM; virions pre-treated with sCD4 5 μg/ml
From the text: as §1

[5] = system: gp120 (BaL) binding to mAb F105; experiment: Surface plasmon resonance, peptide effect on gp120 binding to control mAb F105; set-up: species or system HIV-1; details: peptide at 166 μM; specificity control
Procedure: as §2, §3

Compound: CC[C@H](C)[C@H](NC(=O)[C@H](CC(=O)O)NC(=O)[C@H](CC(C)C)NC(=O)[C@H](CCC(=O)O)NC(=O)[C@H](Cc1ccc(OS(=O)(=O)O)cc1)NC(=O)[C@H](Cc1ccccc1)NC(=O)[C@H](CC(C)C)NC(=O)[C@H](C)NC(=O)[C@H](Cc1ccc(OS(=O)(=O)O)cc1)NC(=O)[C@H](CCC(=O)O)NC(=O)[C@H](CCCCN)NC(=O)[C@H](CCC(N)=O)NC(=O)[C@@H](NC(=O)[C@@H](N)CCCCN)C(C)C)C(=O)N[C@H](C(=O)N1CCC[C@H]1C(=O)N[C@H](C(=O)N[C@@H](CC(=O)O)C(=O)O)[C@@H](C)CC)C(C)C [pV2α-Tys] (H-KVQKE[sY]ALF[sY]ELDIVPID-OH)
- IC50 (HIV-1 BaL): 15 µM
- effect on cell viability (primary CD4+ T cells): no negative effects

Compound: CC[C@H](C)[C@H](NC(=O)[C@H](CC(=O)O)NC(=O)[C@H](CC(C)C)NC(=O)[C@H](CCC(=O)O)NC(=O)[C@H](Cc1ccc(O)cc1)NC(=O)[C@H](Cc1ccccc1)NC(=O)[C@H](CC(C)C)NC(=O)[C@H](C)NC(=O)[C@H](Cc1ccc(O)cc1)NC(=O)[C@H](CCC(=O)O)NC(=O)[C@H](CCCCN)NC(=O)[C@H](CCC(N)=O)NC(=O)[C@@H](NC(=O)[C@@H](N)CCCCN)C(C)C)C(=O)N[C@H](C(=O)N1CCC[C@H]1C(=O)N[C@H](C(=O)N[C@@H](CC(=O)O)C(=O)O)[C@@H](C)CC)C(C)C [pV2α] (H-KVQKEYALFYELDIVPID-OH)
- Kd [1]: 0.0009 µM
- koff ([1]; read-out: koff of gp120 binding to immobilized peptide): 6.4e-05 s⁻¹
- koff (recombinant soluble CD4): 0.013 s⁻¹
- effect on cell viability (primary CD4+ T cells): no negative effects

Compound: [Na+].[O-][Cl+2]([O-])[O-] [sodium chlorate]
- effect on cell viability (HeLa and HEK293 cells): no negative effects
- effect on cell viability (HeLa and HEK293 cells; listed as NaClO3): no adverse effects
- effect on gp120 tyrosine sulfation [2]: totally abrogated gp120 sulfation
- effect on neutralization sensitivity of HIV-1 BaL ΔV2 (HIV-1 BaL ΔV2 gp160): nor did it alter

Compound: pCCR5-Tys: tyrosine-sulfated peptide derived from the CCR5 N-terminus (DYQVSSPIYDINYYTSE; also: tyrosine-sulfated, sites not given here)
- inhibition of binding of surface-bound mAb 412d to CD4-activated gp120 [3]: blocked
- inhibition of virion capture by mAb 412d [4]: specifically inhibited
- inhibition of gp120 binding to mAb F105 [5]: lack of inhibition
